`O=C(O)CCNc1ccc2c(NC(=O)CC3CCCCC3)c(Cl)ccc2n1` [Example 41, N-[6-Chloro-5-[(cyclohexylacetyl)amino]-2-quinolinyl]-β-alanine]: the melting point is 222 to 224 °C (dec.). On to `O=C(NCC1CCCCC1)c1c(Cl)ccc2nc(N3CC(O)C3)ccc12` [Example 53, 6-Chloro-N-(cyclohexylmethyl)-2-(3-hydroxy-1-azetidinyl)-5-quinolinecarboxamide], for which the melting point lay in the range of 206 to 208 °C. In turn, `N[C@H]1CCN(c2ccc3c(C(=O)NCC4CCCCC4)cccc3n2)C1` [Example 54, 2-[(3S)-3-Amino-1-pyrrolidinyl]-N-(cyclohexylmethyl)-5-quinolinecarboxamide] came in with a melting point of 127 to 128 °C. For `O=C(NCC1CCCCC1)c1c(Cl)ccc2nc(N3CC(NCCO)C3)ccc12` [Example 55, 6-Chloro-N-(cyclohexylmethyl)-2-[3-[(2-hydroxyethyl)amino]-1-azetidinyl]-5-quinolinecarboxamide], the melting point was in the range of 150 to 151 °C.

With `CC(C)(C)OC(=O)N(CCO)[C@H]1CCN(c2ccc3c(NC(=O)CC4CCCCC4)c(Cl)ccc3n2)C1` [Example 56, [1-[6-Chlor-5-[(cyclohexylacetyl)amino]-2-quinolinyl]-3-pyrrolidinyl](2-hydroxyethyl)-carbamic Acid 1,1-dimethylethyl Ester], the melting point was 115 to 120 °C. With `Cc1ccc2ncccc2c1C(=O)NCC1CCCCC1` [Example 57, N-(Cyclohexylmethyl)-6-methyl-5-quinolinecarboxamide], the melting point is 165 °C.

Consider `N[C@H]1CCN(Cc2ccc3c(NC(=O)CC4CCCCC4)c(Cl)ccc3n2)C1` [Example 59, N-[2-[[(3S)-3-Amino-1-pyrrolidinyl]methyl]-6-chloro-5-quinolinyl]-cyclohexaneacetamide], for which the melting point was 160 °C (dec.). The figure for `N[C@H]1CCCN(c2ccc3c(NC(=O)CC4CCCCC4)c(Cl)ccc3n2)C1` [Example 60, N-[2-[(3S)-3-Amino-1-piperidinyl]-6-chloro-5-quinolinyl]-cyclohexaneacetamide] is 173 to 176 °C; for `O=C(CC1CCCCC1)Nc1c(Cl)ccc2nc(N3CCC[C@H](NCCO)C3)ccc12` [Example 61, N-[6-Chloro-2-[(3S)-3-[(2-hydroxyethyl)amino]-1-piperidinyl]-5-quinolinyl]-cyclohexaneacetamide] it is 182 to 183 °C; for `N[C@H]1CCN(c2ccc3c(NC(=O)CCC4CCCC4)c(Cl)ccc3n2)C1` [Example 62, N-[2-[(3S)-3-Amin-1-pyrrolidinyl]-6-chloro-5-quinlinyl]-cyclopentanepropanamide] it is 192 to 194 °C. The figure for `O=C(CCC1CCCC1)Nc1c(Cl)ccc2nc(N3CC[C@H](NCCO)C3)ccc12` [Example 63, N-[6-Chloro-2-[(3S)-3-[(2-hydroxyethyl)amino]-1-pyrrolidinyl]-5-quinolinyl]-cyclopentanepropanamide] is 186 to 188 °C; for `O=C(CC1CCCCC1)Nc1c(Cl)ccc2nc(N3CCC(n4cn[nH]c4=O)CC3)ccc12` [Example 64, N-[6-Chloro-2-[4-(1,5-dihydro-5-oxo-4H-1,2,4-triazol-4-yl)-1-piperidinyl]-5-quinolinyl]-cyclohexaneacetamide] it is 310 to 313 °C.

Take `O=C(O)CCCc1ccc2c(NC(=O)CC3CCCCC3)c(Cl)ccc2n1` [Example 67, 6-Chloro-5-[(cyclohexylacetyl)amino]-2-quinolinebutanoic Acid]: the melting point lay in the range of 216 to 220 °C. Take `O=C(O)CC1CCN(c2ccc3c(NC(=O)CC4CCCCC4)c(Cl)ccc3n2)CC1` [Example 68, 1-[6-Chloro-5-[(cyclohexylacetyl)amino]-2-quinolinyl]-4-piperidineacetic Acid]: the melting point lay in the range of 242 to 244 °C. To `O=C(O)CCCCc1ccc2c(NC(=O)CC3CCCCC3)c(Cl)ccc2n1` [Example 70, 6-Chloro-5-[(cyclohexylacetyl)amino]-2-quinolinepentanoic Acid] belongs 199 to 201 °C; to `O=C(NCC1CCCCC1)c1c(Cl)ccc2nc(N3CCC[C@@H]3C(=O)O)ccc12` [Example 71, 1-[6-Chloro-5-[[(cyclohexylmethyl)amino]carbonyl]-2-quinolinyl]-D-proline], 157 to 160 °C. `O=C(NCCC1CCCCC1)c1c(Cl)ccc2nc(N3CCC(C(=O)O)CC3)ccc12` [Example 76, 1-[6-Chloro-5-[[(2-cyclohexylethyl)amino]carbonyl]-2-quinolinyl]-4-piperidinecarboxylic Acid]: the melting point was 253 to 256 °C. On to `CC1(CC(=O)Nc2c(Cl)ccc3nc(N4CCC(C(=O)O)CC4)ccc23)CCCCC1` [Example 79, 1-[6-Chloro-5-[[(1-methylcyclohexyl)acetyl]amino]-2-quinolinyl]-4-piperidinecarboxylic Acid], for which the melting point fell in the range of 210 to 212 °C. In turn, `O=C(CC1CCCCC1)Nc1c(Cl)ccc2nc(N3CCCC(NCCO)C3)ccc12` (centres unmarked) [Example 80, N-[6-Chloro-2-[3-[(2-hydroxyethyl)amino]-1-piperidinyl]-5-quinolinyl]-cyclohexaneacetamide] returned a melting point of 185 to 186 °C. Take `O=C(CC1CCCCC1)Nc1c(Cl)ccc2nc(N3CCCC3CNCCO)ccc12` (centres unmarked) [Example 81, N-[6-Chloro-2-[2-[[(2-hydroxyethyl)amino]methyl]-1-pyrrolidinyl]-5-quinolinyl]-cyclohexaneacetamide]: the melting point was 157 to 158 °C. The figure for `CNC1CCCN(c2ccc3c(NC(=O)CC4CCCCC4)c(Cl)ccc3n2)C1` (centres unmarked) [Example 82, N-[6-Chloro-2-[3-(methylamino)-1-piperidinyl]-5-quinolinyl]-cyclohexaneacetamide] is 158 to 159 °C; for `CNCC1CCCN1c1ccc2c(NC(=O)CC3CCCCC3)c(Cl)ccc2n1` (centres unmarked) [Example 83, N-[6-Chloro-2-[2-[(methylamino)methyl]-1-pyrrolidinyl]-5-quinolinyl]-cyclohexaneacetamide] it is 138 to 145 °C. In turn, `O=C(O)CN[C@H]1CCN(c2ccc3c(NC(=O)CC4CCCCC4)c(Cl)ccc3n2)C1` [Example 85, N-[(3S)-1-[6-Chloro-5-[(cyclohexylacetyl)amino]-2-quinolinyl]-3-pyrrolidinyl]-glycine] registered a melting point of 257 to 259 °C. The compound `Cc1ccc2nc(N3CC[C@H](NCCO)C3)ccc2c1NC(=O)CC1CCCCC1` [Example 86, N-[2-[(3S)-3-[(2-Hydroxyethyl)amino]-1-pyrrolidinyl]-6-methyl-5-quinolinyl]-cyclohexaneacetamide] displayed a melting point of 204 to 207 °C. The figure for `O=C(CC1CCCCC1)Nc1c(Cl)ccc2nc(N3CC[C@H](NS(=O)(=O)C(F)(F)F)C3)ccc12` [Example 88, N-[6-Chloro-2-[(3S)-3-[[(trifluoromethyl)sulfonyl]amino]-1-pyrrolidinyl]-5-quinolinyl]-cyclohexaneacetamide] is 178 to 200 °C. Consider `CS(=O)(=O)NC(=O)N[C@H]1CCN(c2ccc3c(NC(=O)CC4CCCCC4)c(Cl)ccc3n2)C1` [Example 89, N-[6-Chloro-2-[(3S)-3-[[[(methylsulfonyl)amino]carbonyl]amino]-1-pyrrolidinyl]-5-quinolinyl]-cyclohexaneacetamide], for which the melting point lay in the range of 303 to 307 °C.

The record behind these values is patent US7408065B2, “P2X7 receptor antagonists and their use” (AstraZeneca AB, priority 2003, dated 2008).
